These results are taken from patent publication US12115157B2, “3-phenoxyazetidin-1-yl-heteroaryl pyrrolidine derivatives and the use thereof as medicament” (Boehringer Ingelheim International GmbH, priority 2021, dated 2024).

Data set [1] deals with hERG channel (Homo sapiens (Human), UniProt Q12809). In words: hERG channel assay (whole-cell patch clamp). In kind it is cell-based. As to conditions: HEK293 cells stably transfected with hERG cDNA. The source says:
hERG Channel inhibition of compounds of the present invention was investigated as follows:
HEK (human embryonic kidney) 293 cells were stably transfected with hERG cDNA. Cells determined for use in patch clamp experiments were cultivated without antibiotic.
Cells were superfused with a bath solution containing (mM): NaCl (137), KCl (4.0), MgCl2 (1.0), CaCl2(1.8), Glucose (10), HEPES (10), pH 7.4 with NaOH. Patch pipettes were made from borosilicate glass tubing using a pipette and filled with pipette solution containing (mM): K-aspartate (130), MgCl2(5.0), EGTA (5.0), K2ATP (4.0), HEPES (10.0), pH 7.2 with KOH. Resistance of the microelectrodes was typically in the range between 2 MΩ and 5 MΩ.
Membrane currents were recorded using an EPC-10 patch clamp amplifier (HEKA Electronics, Lambrecht, FRG) and PatchMaster software (HEKA). hERG-mediated membrane currents were recorded at typically 28° C., using the whole-cell configuration of the patch-clamp technique. Transfected HEK293 cells were clamped at a holding potential of −60 mV and hERG-mediated inactivating tail currents were elicited using a pulse pattern with fixed amplitudes (activation/inactivation: 40 mV for 2000 ms; recovery: 120 mV for 2 ms; ramp to 40 mV in 2 ms; inactivating tail current: 40 mV for 50 ms) repeated at 15 s intervals. During each inter-pulse interval 4 pulses scaled down by a factor of 0.2 were recorded for a P/n leak subtraction procedure. Rs compensation was employed up to a level that safely allows recording devoid of ringing. The remaining uncompensated Rs was recorded as well as actual temperature and holding current.
The concentrations of the test item were applied sequentially on each of the different cells investigated. A steady state level of baseline current was measured for at least 5 sweeps prior to the application of the first test article concentration. The test item was dissolved in DMSO to yield a stock solution of 1000-fold the highest final concentration. This stock was diluted further in DMSO to stock solutions of 1000-fold the remaining final concentrations. Final dilutions in extracellular buffer were prepared freshly from these stocks by a 1:1000 dilution step each before starting the experiments.
Peak current amplitudes were measured 3 ms after the ramp to +40 mV. For baseline and each concentration, the peak currents of the three last sweeps before application of the next concentration were averaged. Residual currents (I/I0) were calculated for each cell as the fraction of actual average peak current and average baseline peak current. Current inhibition was expressed as […]. Current inhibition for all cells was reported as mean ±SD. If possible, from mean current inhibition data the IC50 was estimated based on the Hill equation using a least squares procedure.
Background: The hERG channel carries a current that helps repolarise heart muscle cells.

Data set [2] deals with human hepatocytes. Briefly: Metabolic stability in human hepatocytes. In kind it is in vitro ADME. Conditions: human hepatocyte suspension, 1 μM; predicted hepatic clearance as percentage of hepatic blood flow. On the procedure: The metabolic degradation of a test compound was assayed in a human hepatocyte suspension. After recovery from cryopreservation, human hepatocytes were diluted in Dulbecco's modified eagle medium (supplemented with 3.5 μg glucagon/500 mL, 2.5 mg insulin/500 mL, 3.75 mg hydrocortisone/500 mL, 5% human serum) to obtain a final cell density of 1.0×10^6 cells/mL or 4.0×10^6 cells/mL, depending on the metabolic turnover rate of the test compound.
Following a 30 minutes preincubation in a cell culture incubator (37° C., 10% CO2), test compound solution was spiked into the hepatocyte suspension, resulting in a final test compound concentration of 1 μM and a final DMSO concentration of 0.05% (v/v).
The cell suspension was incubated at 37° C. (cell culture incubator, horizontal shaker) and samples were removed from the incubation after 0, 0.5, 1, 2, 4 and 6 hours. Samples were quenched with acetonitrile (containing internal standard) and pelleted by centrifugation. The supernatant was transferred to a 96-deepwell plate, and prepared for analysis of decline of parent compound by HPLC-MS/MS.
The percentage of remaining test compound was calculated using the peak area ratio (test compound/internal standard) of each incubation time point relative to the time point 0 peak area ratio. The log-transformed data were plotted versus incubation time, and the absolute value of the slope obtained by linear regression analysis was used to estimate in vitro half-life (T1/2).
In vitro intrinsic clearance (CLint) was calculated from in vitro T1/2 and scaled to whole liver using a hepatocellularity of 120×10^6 cells/g liver, a human liver per body weight of 25.7 g liver/kg as well as in vitro incubation parameters, applying the following equation: CL_[…]_IN VIVO[mL/min/kg]=(CL_[…][μL/min/10^6 cells]×hepatocellularity[10^6 cells/g liver]×liver factor[g/kg body weight])/1000
Hepatic in vivo blood clearance (CL) was predicted according to the well-stirred liver model considering an average liver blood flow (QH) of 20.7 mL/min/kg: CL[mL/min/kg]=CL_[…]_IN VIVO[mL/min/kg]×hepatic blood flow[mL/min/kg]/(CL_[…]_IN VIVO[mL/min/kg]+hepatic blood flow[mL/min/kg])
Results were expressed as percentage of hepatic blood flow: QH[%]=CL[mL/min/kg]/hepatic blood flow[mL/min/kg])

Data set [3] deals with human plasma proteins. In words: Human plasma protein binding assay (equilibrium dialysis). It is filed as in vitro ADME. Conditions: 1 μM, 2 hours, 37° C. On the procedure: Equilibrium dialysis (ED) technique was used to determine the approximate in vitro fractional binding of test compounds to plasma proteins. Dianorm Teflon dialysis cells (micro 0.2) were used. Each dialysis cell consists of a donor and an acceptor chamber, separated by an ultrathin semipermeable membrane with a 5 kDa molecular weight cut-off. Stock solutions for each test compound were prepared in DMSO at 1 mM and serially diluted to obtain a final test concentration of 1 μM. The subsequent dialysis solutions were prepared in plasma (supplemented with NaEDTA as anticoagulant), and aliquots of 200 μL test compound dialysis solution in plasma were dispensed into the donor (plasma) chambers. Aliquots of 200 μL dialysis buffer (100 mM potassium phosphate, pH 7.4) were dispensed into the buffer (acceptor) chamber. Incubation was carried out for 2 hours under rotation at 37° C. for establishing equilibrium.
At the end of the dialysis period, aliquots obtained from donor and acceptor chambers, respectively, were transferred into reaction tubes, spiked with Internal Standard solution and processed for HPLC-MS/MS analysis. Analyte concentrations were quantified in aliquots of samples by HPLC-MS/MS against external calibration curves.
Percent bound was calculated using the formula: % bound=(plasma concentration−buffer concentration/plasma concentration)×100

Chain of hERG channel (Q12809 whole entry): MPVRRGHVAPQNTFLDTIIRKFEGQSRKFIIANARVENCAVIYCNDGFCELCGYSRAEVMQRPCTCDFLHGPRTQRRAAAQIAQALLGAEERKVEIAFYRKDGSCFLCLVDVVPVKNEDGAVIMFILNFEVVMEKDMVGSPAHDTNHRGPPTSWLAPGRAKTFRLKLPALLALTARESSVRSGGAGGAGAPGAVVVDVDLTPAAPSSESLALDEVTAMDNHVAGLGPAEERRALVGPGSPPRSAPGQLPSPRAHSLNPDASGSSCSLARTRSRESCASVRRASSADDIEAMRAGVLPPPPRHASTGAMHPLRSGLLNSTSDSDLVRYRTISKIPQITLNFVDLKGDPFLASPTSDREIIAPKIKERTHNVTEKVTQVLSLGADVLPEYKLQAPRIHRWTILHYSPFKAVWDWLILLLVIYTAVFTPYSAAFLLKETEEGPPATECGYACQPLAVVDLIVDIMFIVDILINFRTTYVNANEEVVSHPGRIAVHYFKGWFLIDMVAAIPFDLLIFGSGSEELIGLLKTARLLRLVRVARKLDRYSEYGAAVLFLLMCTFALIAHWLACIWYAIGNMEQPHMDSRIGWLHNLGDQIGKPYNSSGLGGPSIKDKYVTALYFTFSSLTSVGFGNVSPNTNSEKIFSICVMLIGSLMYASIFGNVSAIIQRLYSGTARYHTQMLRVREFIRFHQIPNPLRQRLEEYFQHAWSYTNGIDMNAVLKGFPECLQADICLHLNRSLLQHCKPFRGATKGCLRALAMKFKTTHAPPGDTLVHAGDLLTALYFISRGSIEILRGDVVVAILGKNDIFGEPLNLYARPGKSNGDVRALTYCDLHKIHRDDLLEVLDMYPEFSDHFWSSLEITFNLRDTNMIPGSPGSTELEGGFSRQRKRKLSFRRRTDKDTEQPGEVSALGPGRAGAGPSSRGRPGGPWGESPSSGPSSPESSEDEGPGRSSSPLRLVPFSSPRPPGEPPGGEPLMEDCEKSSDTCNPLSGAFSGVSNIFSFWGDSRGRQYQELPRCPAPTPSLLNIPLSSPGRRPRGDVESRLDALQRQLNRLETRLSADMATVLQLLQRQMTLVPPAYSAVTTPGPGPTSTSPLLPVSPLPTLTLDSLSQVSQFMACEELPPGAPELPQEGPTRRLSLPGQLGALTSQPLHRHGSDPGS

For `CC(=O)N1C[C@H](NC(=O)c2nccnc2N2CC(Oc3cc(F)cc(F)c3)C2)C(F)(F)C1` [Example 10a], in data set [1], the IC50 is more than 10 µM. For the same compound, the “Human HepStab” value in data set [2] was 15.3 % QH. The “Hu PPB” value in data set [3] is 82.4 % bound.

The compound `CC(=O)N1C[C@H](NC(=O)c2nccnc2N2CC(Oc3cc(F)c(F)c(F)c3)C2)C(F)(F)C1` [Example 11b] displayed an IC50 in data set [1] of more than 10 µM. In addition, the “Human HepStab” value in data set [2] is 11.4 % QH. The “Hu PPB” value in data set [3] was 84.4 % bound.

`CC(=O)N1CC[C@@H](NC(=O)c2nsnc2N2CC(Oc3cc(F)cc(F)c3)C2)C1` [Example 15a] showed an IC50 in data set [1] of more than 10 µM. Further, the “Human HepStab” value in data set [2] is 6.4 % QH. The “Hu PPB” value in data set [3] turned out to be 90.2 % bound.

As a reminder, the IC50 is the concentration at which inhibition is half-maximal. High values mean weaker potency, low ones greater potency.
